Results: ChEMBL document CHEMBL3867466, “Synthesis and biological evaluation of novel 2,4,5-triarylimidazole-1,2,3-triazole derivatives via click chemistry as α-glucosidase inhibitors” (Bioorg Med Chem Lett, 2016)

Molecular target: Alpha-glucosidase MAL12 (Saccharomyces cerevisiae) (UniProt P53341)
Test: Potency index, ratio of acarbose IC50 to compound IC50 for bakers yeast alpha-glucosidase

Alpha-glucosidase MAL12 (Saccharomyces cerevisiae), sequence (P53341 whole entry, looked up): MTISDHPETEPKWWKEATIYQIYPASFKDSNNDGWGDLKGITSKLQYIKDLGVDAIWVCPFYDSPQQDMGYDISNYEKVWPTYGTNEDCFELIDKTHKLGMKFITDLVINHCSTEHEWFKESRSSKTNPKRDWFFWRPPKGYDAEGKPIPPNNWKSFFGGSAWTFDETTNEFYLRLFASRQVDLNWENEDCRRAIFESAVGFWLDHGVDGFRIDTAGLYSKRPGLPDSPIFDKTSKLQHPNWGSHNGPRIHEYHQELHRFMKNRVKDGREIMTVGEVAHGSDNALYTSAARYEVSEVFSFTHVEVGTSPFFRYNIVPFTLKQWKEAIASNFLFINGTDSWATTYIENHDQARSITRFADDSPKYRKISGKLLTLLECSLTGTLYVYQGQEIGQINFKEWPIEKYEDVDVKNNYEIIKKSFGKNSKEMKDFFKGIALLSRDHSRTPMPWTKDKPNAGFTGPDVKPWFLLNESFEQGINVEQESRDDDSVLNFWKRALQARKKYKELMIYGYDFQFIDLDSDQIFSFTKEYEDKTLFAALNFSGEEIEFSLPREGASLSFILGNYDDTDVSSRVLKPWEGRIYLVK

CCOc1ccccc1NC(=O)Cn1cc(Cn2c(-c3cccc(Br)c3)nc(-c3ccccc3)c2-c2ccccc2)nn1
Ratio IC50: 52
